The values below come from publication PMC10054552, “Phototoxic Potential of Different DNA Intercalators for Skin Cancer Therapy: In Vitro Screening” (International Journal of Molecular Sciences, 2023).

The test system of assay [1] is MET1 cells. Description: Phototoxicity assay in MET1 cells (irradiation 2.5 J/cm², resazurin). Format: cell-based, human. Particulars: for phototoxicity in the investigated range: 1.25-40 µM, irradiated vs dark. As for the experimental part:
The […] SCC cell line (human squamous cell carcinoma) was obtained from Ximbio (London, UK), HaCaT (immortalized human keratinocytes cell line) was obtained from Addexbio (San Diego, CA, USA) and WM983b (human metastatic melanoma cell line) was obtained from Rockland (Pottstown, PA, USA). […] Cells were cultivated in an incubator (Sanyo MCO-19AIC-UV) at 37 °C in a 5% CO2 humidified atmosphere. […] The plates were incubated for 24 h, followed by washing with PBS supplemented with calcium and magnesium. Afterwards, complete culture medium without phenol red was added, and the plates were irradiated from above and submitted to a dose of 2.5 J/cm2 of irradiation emitted by different wavelength light sources coupled with a homemade irradiation system created in our laboratory. […] This experiment was performed in an incubator that was able to keep plates in a dark environment; therefore, the dark control plates were protected from any light source, as well as the others, with the exception of the irradiation that each one was submitted to. Plates were incubated for another 24 h, and finally, the resazurin assay was performed as previously described in Section 3.3. For the phototoxicity study using WM983b cells, plates were prepared at a cell density of 40,000 cells/cm2, and cells were treated with MB and AO only.

The test system of assay [2] is MET1 cells. The assay is described as follows: Cytotoxicity (resazurin cell viability) in MET1 cells. In kind it is cell-based, human. From the text:
(§1) The MET1 SCC cell line (human squamous cell carcinoma) was obtained from Ximbio (London, UK), HaCaT (immortalized human keratinocytes cell line) was obtained from Addexbio (San Diego, CA, USA) and WM983b (human metastatic melanoma cell line) was obtained from Rockland (Pottstown, PA, USA). Cells were maintained in Dulbecco’s Modified Eagle Medium (DMEM) supplemented with 10% (v/v) fetal bovine serum (FBS) for MET1 and HaCaT and 5% (v/v) for WM983b cells, and Pen–Strep (penicillin 100 U/mL and streptomycin 100 µg/mL). Cells were cultivated in an incubator (Sanyo MCO-19AIC-UV) at 37 °C in a 5% CO2 humidified atmosphere.
(§2) First, 96-well plates were seeded with HaCaT and MET1 cells at a density of 20,000 cells/cm² and incubated for 24 h. After that period, the culture medium was replaced by culture medium containing different compounds: MB, AO, GV, QT, CUR, EGCG, PHE, NEO and BIPY. The compounds were diluted in culture medium using a range of concentrations of each compound from 1.25 µM to 320 µM (in quadruplicate). The medium was aspirated from the 96-well plate and replaced by the samples diluted in medium. Cells cultured with complete medium and cells cultured with medium supplemented with 0.2% (v/v) or 10% (v/v) of DMSO were used as negative (NC), solvent (SC) and positive controls (PC), respectively. The plates were incubated for 24 and 48 h, followed by evaluation of cell viability using a colorimetric assay. Cells containing samples were washed with PBS supplemented with calcium and magnesium; then, resazurin solution diluted in DMEM at 0.02 mg/mL was added. The medium containing resazurin was also dispensed in wells without cells, which were used as references. After 3 h of incubation, the absorbance was measured in a microplate reader (ELX800UV, Biotek Instruments) at wavelengths of 570 nm and 600 nm. The corrected absorbance was proportional to cell viability. Propagation of uncertainties was used to calculate the combined standard uncertainty. For the cytotoxicity study using WM983b cells, plates were seeded at a density of 40,000 cells/cm², and cells were treated only with MB and AO.

For assay [3], the system named is HaCaT cells. The assay is described as follows: Cytotoxicity (resazurin cell viability) in HaCaT cells. In kind it is cell-based, human.
Description: as §1, §2

For assay [4], the system named is WM983b cells. The assay is described as follows: Phototoxicity assay in WM983b cells (irradiation 2.5 J/cm², resazurin). Conditions: Homo sapiens, light or radiation study, treated 24 h. Format: cell-based.
Description: as §1
For the phototoxicity studies, 96-well plates were seeded with MET1 cells at a density of 20,000 cells/cm², incubated overnight and treated for 24 h with MB, AO, GV, QT, CUR, EGCG, PHE, NEO and BIPY diluted in culture medium in a concentration range of 1.25 µM to 40 µM (in sextuplicate). […] Cells cultured with complete medium and cells cultured with medium supplemented with 0.2% (v/v) or 10% (v/v) of DMSO were used as negative (NC), solvent (SC) and positive control (PC), respectively. The plates were incubated for 24 h, followed by washing with PBS supplemented with calcium and magnesium. Afterwards, complete culture medium without phenol red was added, and the plates were irradiated from above and submitted to a dose of 2.5 J/cm² of irradiation emitted by different wavelength light sources coupled with a homemade irradiation system created in our laboratory. These light sources consisted of an equivalent 26 cm UV tubular lamp (254 nm) (Phillips TUV PLS 9W/2PHg) and a tricolor LED lamp (Led Grow Light Bulb E26/E27) with intensity peaks at 457 nm (blue light), 583 nm (yellow light) and 640 nm (red light) provided by 18, 18 and 28 LEDs, respectively, with dimensions of 3 × 3 mm^2. The irradiance values of light at 254, 457, 583 and 640 nm wavelengths were of 16.7, 55, 45 and 25 W/m^2, respectively. This experiment was performed in an incubator that was able to keep plates in a dark environment; therefore, the dark control plates were protected from any light source, as well as the others, with the exception of the irradiation that each one was submitted to. Plates were incubated for another 24 h, and finally, the resazurin assay was performed as previously described in Section 3.3. For the phototoxicity study using WM983b cells, plates were prepared at a cell density of 40,000 cells/cm², and cells were treated with MB and AO only.

For assay [5], the system named is WM983b cells. Description: Cytotoxicity (resazurin cell viability) in WM983b cells. Conditions: for IC50: Homo sapiens, 1.25-320 µM. Format: cell-based, human.
Description: as §1, §2

[6] abbreviates: Homo sapiens, MET-1, light or radiation study, MET1 cells, treated 24 h, 254 nm light, 2.5 J/cm², read-out: IC50 254 nm.
The mark [7] stands for this setting: Homo sapiens, MET-1, light or radiation study, MET1 cells, treated 24 h, 457 nm light, 2.5 J/cm², read-out: IC50 457 nm.
[8] abbreviates: Homo sapiens, MET-1, light or radiation study, MET1 cells, treated 24 h, 583 nm light, 2.5 J/cm², read-out: IC50 583 nm.
The mark [9] stands for this setting: Homo sapiens, MET-1, light or radiation study, MET1 cells, treated 24 h, 640 nm light, 2.5 J/cm², read-out: IC50 640 nm.
Where [10] appears, read: Homo sapiens, MET-1, light or radiation study, MET1 cells, treated 24 h, dark control (no irradiation), read-out: IC50 Dark.
Where [11] appears, read: Homo sapiens, MET-1, MET1 cells, 24 h exposure, 1.25-320 µM, read-out: IC50 MET1 Cells 24 h.
[12] abbreviates: Homo sapiens, MET-1, MET1 cells, 48 h exposure, 1.25-320 µM, read-out: IC50 MET1 Cells 48 h.
Setting [13] is: Homo sapiens, MET-1, MET1 cells, exposure time not given, read-out: IC50 in MET1 cells (summary statement).
[14] abbreviates: Homo sapiens, HaCaT cells, 24 h exposure, 1.25-320 µM, read-out: IC50 HaCaT Cells 24 h.
[15] abbreviates: Homo sapiens, HaCaT cells, 48 h exposure, 1.25-320 µM, read-out: IC50 HaCaT Cells 48 h.
Setting [16] is: Homo sapiens, MET-1, light or radiation study, MET1 cells, light condition not stated, read-out: IC50 phototoxicity results (summary statement).

Molecules are shown by their SMILES. Where two headings read alike, the source gives them in different places. Some results are limits rather than exact numbers.

Consider `c1cnc2c(c1)ccc1cccnc12` [1,10-phenanthroline], for which the concentration for half-maximal inhibition (IC50) in assay [1] (setting [6]) is 6 µM; in assay [1] (setting [7]), 4.9 µM; in assay [1] (setting [8]), 6.8 µM; in assay [1] (setting [9]) it was 4.8 µM; in assay [1] (setting [10]) it was 7.4 µM; in assay [2] (setting [11]) it was 124 µM. For the same molecule, the half-maximal inhibitory concentration (IC50) in assay [2] (setting [12]) is 7.7 µM; in assay [2] (setting [13]), > 100 µM; in assay [3] (setting [14]) it was 35.2 µM; in assay [3] (setting [15]) it was 5.9 µM.
Consider `c1ccc(-c2ccccn2)nc1` [2,2′-bipyridyl], for which the IC50 in assay [1] (Homo sapiens, MET-1, light or radiation study, 24 h, read-out: IC50 254 nm) is 225 µM; in assay [1] (Homo sapiens, MET-1, light or radiation study, 24 h, read-out: IC50 457 nm), 171 µM; in assay [1] (Homo sapiens, MET-1, light or radiation study, 24 h, read-out: IC50 583 nm) it was 190 µM; in assay [1] (Homo sapiens, MET-1, light or radiation study, 24 h, read-out: IC50 640 nm), 202 µM; in assay [1] (Homo sapiens, MET-1, light or radiation study, 24 h, read-out: IC50 Dark) it was 228 µM; in assay [1] (Homo sapiens, MET-1, light or radiation study, read-out: IC50 phototoxicity results (summary statement)), > 100 µM. For the same molecule, the concentration for half-maximal inhibition (IC50) in assay [2] (Homo sapiens, MET-1, 24 h, read-out: IC50 MET1 Cells 24 h) was 275 µM; in assay [2] (Homo sapiens, MET-1, 48 h, read-out: IC50 MET1 Cells 48 h), 97.2 µM; in assay [2] (Homo sapiens, MET-1, read-out: IC50 in MET1 cells (summary statement)), > 100 µM; in assay [3] (Homo sapiens, HaCaT, 24 h, read-out: IC50 HaCaT Cells 24 h) it was 125 µM; in assay [3] (Homo sapiens, HaCaT, 48 h, read-out: IC50 HaCaT Cells 48 h), 57.8 µM. The “phototoxicity in the investigated range” value in assay [1] (MET1 cells) was “did not show phototoxicity”.
Turning to `COc1cc(/C=C/C(=O)CC(=O)/C=C/c2ccc(O)c(OC)c2)ccc1O` [Curcumin, curcumin], the IC50 in assay [1] (Homo sapiens, MET-1, light or radiation study, MET1 cells, 640, 583, 457 and 254 nm, 2.5 J/cm², read-out: IC50 values under irradiation (all wavelengths together)) is < 11.5 µM; in assay [1] (setting [16]), < 20 µM; in assay [1] (setting [6]), 9.3 µM; in assay [1] (setting [7]), 10.7 µM; in assay [1] (setting [8]) it was 11.5 µM; in assay [1] (setting [9]), 11 µM. The half-inhibitory concentration (IC50) in assay [1] (setting [10]) is 15.5 µM; in assay [2] (setting [11]), 26 µM; in assay [2] (setting [12]) it was 7.2 µM; in assay [2] (setting [13]) it was < 30 µM; in assay [3] (setting [14]), 9 µM; in assay [3] (setting [15]) it was 11.7 µM.
Turning to `O=C(O[C@@H]1Cc2c(O)cc(O)cc2O[C@@H]1c1cc(O)c(O)c(O)c1)c1cc(O)c(O)c(O)c1` [Epigallocatechin gallate, epigallocatechin gallate], in assay [1] (MET1 cells), the “phototoxicity in the investigated range” value is on record as “no phototoxicity was observed”. The half-maximal inhibitory concentration (IC50) was > 100 µM in assay [1] (MET1 cells, light condition not stated, read-out: IC50 phototoxicity results (summary statement)); 193 µM in assay [1] (MET1 cells, treated 24 h, 254 nm light, 2.5 J/cm², read-out: IC50 254 nm); 222 µM in assay [1] (MET1 cells, treated 24 h, 457 nm light, 2.5 J/cm², read-out: IC50 457 nm); 211 µM in assay [1] (MET1 cells, treated 24 h, 583 nm light, 2.5 J/cm², read-out: IC50 583 nm); 224 µM in assay [1] (MET1 cells, treated 24 h, 640 nm light, 2.5 J/cm², read-out: IC50 640 nm); 191 µM in assay [1] (MET1 cells, treated 24 h, dark control (no irradiation), read-out: IC50 Dark). In addition, the half-inhibitory concentration (IC50) amounted to 174 µM in assay [2] (MET1 cells, 24 h exposure, 1.25-320 µM, read-out: IC50 MET1 Cells 24 h); 136 µM in assay [2] (MET1 cells, 48 h exposure, 1.25-320 µM, read-out: IC50 MET1 Cells 48 h); 211 µM in assay [3] (HaCaT cells, 24 h exposure, 1.25-320 µM, read-out: IC50 HaCaT Cells 24 h); 174 µM in assay [3] (HaCaT cells, 48 h exposure, 1.25-320 µM, read-out: IC50 HaCaT Cells 48 h).
`CN(C)c1ccc2nc3ccc(=[N+](C)C)cc-3sc2c1` [Methylene blue, methylene blue]: the IC50 in assay [1] (setting [6]) came out at 4.3 µM; in assay [1] (setting [7]) it was 6.2 µM; in assay [1] (setting [8]), 5 µM; in assay [1] (setting [9]) it was 3.8 µM; in assay [1] (setting [10]) it was 10.9 µM; in assay [4] (640 nm light, 2.5 J/cm², read-out: IC50 irradiated samples (640 nm)), 2.1 µM. The concentration for half-maximal inhibition (IC50) stood at 7.3 µM in assay [4] (without irradiation, read-out: IC50 non-irradiated samples); 14.2 µM in assay [2] (setting [11]); 4.2 µM in assay [2] (setting [12]); 11.6 µM in assay [3] (setting [14]); 7.1 µM in assay [3] (setting [15]); 18 µM in assay [5] (24 h exposure, read-out: IC50 WM983b cells 24 h). In assay [5] (48 h exposure, read-out: IC50 WM983b cells 48 h), the IC50 was determined as 6.1 µM. The “concentration above which the relative cell population falls below 70%” value in assay [5] (24 or 48 h) is listed as “above 10 µM”.
For `O=c1c(O)c(-c2ccc(O)c(O)c2)oc2cc(O)cc(O)c12` [Quercetin, quercetin], the IC50 is > 100 µM in assay [1] (setting [16]); 205 µM in assay [1] (setting [6]); 288 µM in assay [1] (setting [7]); 269 µM in assay [1] (setting [8]); 340 µM in assay [1] (setting [9]); 230 µM in assay [1] (setting [10]). Also, the concentration for half-maximal inhibition (IC50) was > 320 µM in assay [2] (setting [11]); 110 µM in assay [2] (setting [12]); > 100 µM in assay [2] (setting [13]); > 320 µM in assay [3] (setting [14]); 315 µM in assay [3] (setting [15]).
